Laboratory results: patent US20220002772A1, “METHOD FOR PRODUCING ALLOLACTOSE” (priority 2019, published 2022)

Tests used:
[1] = system: lac promoter on the pUC19 plasmid; assay: Lac promoter inducibility by Blue-White screening method (JM109+pUC19 strain, X-Gal plates); format: cell-based, E. coli JM109; design: key to Blue coloration of formed colonies of JM109 + pUC19 strain: “x (cross)” indicates no blue coloration; “Δ (triangle)” indicates unclear blue coloration; “∘ (circle)” indicates clear blue coloration
Protocol: The lac promoter inducibility of allolactose was evaluated by the Blue-White screening method using E. coli JM109 and pUC19 plasmid.
Competent cells of E. coli JM109 (Takara Bio) were transformed with pUC19 plasmid (Takara Bio), and cultured on LB agar medium containing 50 mg/L ampicillin at 37° C. overnight, to form colonies. The formed colonies were streaked on LB agar medium containing 50 mg/L ampicillin, and single colonies were obtained, to thereby obtain a strain JM109+pUC19. […] Beta-galactosidase activity of the strain JM109 is lost unless alpha-complementarity is exerted.
The reaction mixture containing 55.8 g/L of allolactose obtained in (4) above was subjected to heating at 95° C. for 10 minutes to inactivate the enzyme, and the supernatant was passed through a 0.22 μm pore size filter, to obtain an allolactose solution. The obtained allolactose solution was diluted according to the dilution factors listed in Table 4 and added to LB agar media, and X-Gal (Thermo Fisher Scientific) was further added, to prepare LB agar media for Blue-White screening containing various concentrations of allolactose and X-gal. X-gal is degraded by beta-galactosidase, and the degradation product thereof, 4-chloro-3-bromo-indigo, provides blue coloration.
The JM109+pUC19 strain was streaked on each LB agar medium for Blue-White screening and cultured at 37° C. overnight, and the coloration of single-isolated colonies was observed.

lac promoter = assay: Lac promoter inducibility in pET expression system (GH1-2 protein expression, SDS-PAGE, strain EcGHH6); format: cell-based, E. coli Rosetta 2(DE3)pLysS; conditions: liquid culture
Protocol: The lac promoter inducibility of allolactose was evaluated using the inducibility of pET expression system, which is commonly used for heterologous protein production, as an indicator. In the pET expression system, T7-polymerase, which is inducibly expressed from the lac promoter, highly expresses a gene downstream of the T7 promoter (e.g. a gene encoding a heterologous protein). As the heterologous protein to be produced, beta-galactosidase gene of a filamentous fungus Talaromyces cellulolyticus (hereinafter, also referred to as “gh1-2 gene”) was used.
RNA was prepared form cells of the T. cellulolyticus strain Y-94 (CBS 136886) by using RNeasy Plant Mini Kit (QIAGEN), and a full-length cDNA solution was prepared form the RNA solution by using SMARTer® RACE 5′/3′ kit. PCR was performed by using the cDNA solution as the template and primers of SEQ ID NOS: 13 and 14, to amplify a cDNA fragment of gh1-2 gene. Separately, PCR was performed by using a plasmid pET24a (Novagen) as the template and primers of SEQ ID NOS: 3 and 4, to amplify an outside fragment of the plasmid. The PCR products were each purified by using Wizard SV Gel and PCR Clean-Up System (Promega). In-Fusion HD Cloning Kit (Takara Bio) was used to ligate the purified PCR products. […]

[2] = system: lac promoter on the pUC19 plasmid; assay: Lac promoter inducibility with DasherGFP reporter (JM109+pUC-DGFP-PtI strain); format: cell-based, E. coli JM109; conditions: allolactose at 0.0075 mM in LB agar medium, 37° C. overnight, UV illuminator
Protocol: It is assumed that since blue coloration of the degradation product of X-gal by beta-galactosidase (LacZ) was used as the evaluation index in the evaluation in (6) above, allolactose was degraded by beta-galactosidase (LacZ), which is the reporter gene, and as a result the lac promoter inducibility of allolactose was attenuated under conditions with allolactose concentrations of 0.0075 to 0.015 mM.
PCR was performed by using FPB-27-441 plasmid (Cosmo Bio) as the template and primers of SEQ ID NOS: 5 and 6, to amplify a gene fragment encoding DasherGFP. Separately, PCR was performed by using a plasmid pUC19 plasmid (Takara Bio) as the template and primers of SEQ ID NOS: 7 and 8, to amplify an outside fragment of the plasmid. The PCR products were each purified by using Wizard SV Gel and PCR Clean-Up System (Promega). In-Fusion HD Cloning Kit (Takara Bio) was used to ligate the purified PCR products. E. coli JM109 was transformed with the reaction product, and cultured on LB agar medium containing 50 mg/L ampicillin at 37° C. overnight, to form colonies, to thereby obtain a transformant. A plasmid pUC19-DGFP, in which LacZα gene has been replaced with DasherGFP gene, was obtained from the obtained transformant by using Wizard Plus Miniprep System (Promega). […]

## OC[C@H]1O[C@@H](OC[C@H]2OC(O)[C@H](O)[C@@H](O)[C@@H]2O)[C@H](O)[C@@H](O)[C@H]1O (some centres unmarked) [allolactose]
[1]; allolactose concentrations of 0.0075 to 0.015 mM
  Blue coloration of colonies (lac promoter inducibility): blue coloration was obscured
[1]; allolactose concentrations of 0.03 to 1.5 mM
  Blue coloration of colonies, i.e. induction of gene expression from the lac promoter: blue coloration of colonies was observed
[1]; final concentration of allolactose in plate media 0.0075 mM (dilution factor 21736)
  Blue coloration of formed colonies of JM109 + pUC19 strain: Δ
[1]; final concentration of allolactose in plate media 0.015 mM (dilution factor 10868)
  Blue coloration of formed colonies of JM109 + pUC19 strain: Δ
[1]; final concentration of allolactose in plate media 0.03 mM (dilution factor 5434)
  Blue coloration of formed colonies of JM109 + pUC19 strain: ∘
[1]; final concentration of allolactose in plate media 0.075 mM (dilution factor 2174)
  Blue coloration of formed colonies of JM109 + pUC19 strain: ∘
[1]; final concentration of allolactose in plate media 0.15 mM (dilution factor 1087)
  Blue coloration of formed colonies of JM109 + pUC19 strain: ∘
[1]; final concentration of allolactose in plate media 0.3 mM (dilution factor 543)
  Blue coloration of formed colonies of JM109 + pUC19 strain: ∘
[1]; final concentration of allolactose in plate media 1.5 mM (dilution factor 109)
  Blue coloration of formed colonies of JM109 + pUC19 strain: ∘
[1]; final concentration of allolactose in plate media 3 mM (dilution factor 54)
  Blue coloration of formed colonies of JM109 + pUC19 strain: Δ
[1]; final concentration of allolactose in plate media 15 mM (dilution factor 11)
  Blue coloration of formed colonies of JM109 + pUC19 strain: x
Lac promoter; allolactose concentrations below 0.1 mM
  Expression level of heterologous protein (GH1-2): decreased
Lac promoter; allolactose final concentration 0.1 mM, 13° C., 14 hours
  Expression of heterologous protein (GH1-2) compared with induction by 1 mM IPTG: almost equally
[2]
  Fluorescent coloration of colonies (DasherGFP expression from lac promoter): fluorescent coloration of the colonies of the JM109+pUC-DGFP-PtI strain was observed
